Where a name gives a salt, the structure may show the parent alone.

The target in the test is human tryptase. The test can be described thus: Inhibition of human tryptase: apparent dissociation constant Kiapp, chromogenic substrate tos-Gly-Pro-Arg-pNA. In kind it is biochemical. To be noted: apparent dissociation constant in presence of substrate; human tryptase from lung tissue, 50 μg of heparin/ml. The source says:
The documented pathophysiological effects of mast cell tryptase are brought about directly by the enzymic activity of the protease. Accordingly, they are reduced or blocked by inhibitors which inhibit the enzymatic activity of the tryptase. The equilibrium dissociation constant Ki of the enzyme-inhibitor complex is a suitable measure of the affinity of a reversible inhibitor for the target protease. This Ki value can be determined by measuring the effect of the inhibitor on the tryptase-induced cleavage of a chromogenic peptide-p-nitroanilide substrate or a fluorogenic peptide-aminomethylcoumarin substrate.
The dissociation constants of the tryptase-inhibitor complexes are determined under equilibrium conditions in accordance with the general recommendations of Bieth (Bieth J G, Pathophysiological interpretation of kinetic constants of protease inhibitors, Bull. Europ. Physiopath. Resp. 16:183-195, 1980) and the methods of Sommerhoff et al. (Sommerhoff C P et al., A. Kazal-type inhibitor of human mast cell tryptase: Isolation from the medical leech Hirudo medicinalis, characterization, and sequence analysis, Biol. Chem. Hoppe-Seyler 375: 685-694, 1994).
Human tryptase is prepared in a pure state from lung tissue; the specific activity of the isolated protease, determined by means of titration, is normally 85% of the theoretical value. Constant quantities of tryptase are incubated with increasing quantities of the inhibitors in the presence of 50 μg of heparin/ml for stabilizing the protease. After the equilibrium has been established between the reaction partners, the remaining enzyme activity is determined after adding the peptide-p-nitroanilide substrate tos-Gly-Pro-Arg-pNA, the cleavage of which is monitored at 405 nm over a period of 3 min. Alternatively, the residual enzymic activity can also be determined using fluorogenic substrates. The apparent dissociation constants Kiapp (i.e. in the presence of substrate) are subsequently ascertained by nonlinear regression by fitting the enzyme rates to the general equation for reversible inhibitors (Morrison J F, Kinetics of the reversible inhibition of enzyme-catalysed reactions by tight-binding inhibitors, Biochim. Biophys. Acta 185, 269-286, 1969):
V1/V0=1−{Et+lt+Kiapp−[(Et+lt+Kiapp)^2−4Etlt]^½}/2Et
In this equation, V1 and V0 are the rates in the presence and absence of the inhibitor, respectively, and Et and lt are the concentrations of the tryptase and of the inhibitor.
The apparent dissociation constants which were determined for the compounds according to the invention are given in Table A below, in which the numbers of the compounds correspond to the numbers of the compounds in the examples.
With `CC(C)(c1ccc(OC(=O)N2CCN(C(=O)NCc3ccc(CN)cc3)CC2)cc1)c1ccc(OC(=O)N2CCN(C(=O)NCc3ccc(CN)cc3)CC2)cc1` [Compound 36, 2,2-Bis-{4-[4-(4-aminomethylbenzylcarbamoyl)-1-piperazinylcarbonyloxy]phenyl}propane dihydrochloride], the Ki came to 28 nM.
With `NCc1cccc(C(=O)N2CCN(C(=O)c3cccc(C(=O)N4CCN(C(=O)c5cccc(CN)c5)CC4)n3)CC2)c1` [Compound 1, Pyridine-2,6-dicarbobis[4-(3-aminomethylbenzoyl)-1-piperazide]] the figure was 3000 nM; with `CC(C)(c1ccc(OCC(=O)NCc2ccc(NC(=N)N)cc2)cc1)c1ccc(OCC(=O)NCc2ccc(NC(=N)N)cc2)cc1` [Compound 31, 2,2-Bis-[4-(4-guanidinylbenzylamino)carbonylmethoxyphenyl]propane dihydroacetate], 200 nM; with `NCC1CCC(C(=O)NC2CCN(C(=O)c3cccc(C(=O)N4CCC(NC(=O)C5CCC(CN)CC5)CC4)n3)CC2)CC1` (stereo not drawn) [Compound 15, Pyridine-2,6-dicarbobis[4-(4-aminomethylcyclohexylcarbonylamino)-1-piperidide]], 3000 nM.
Take `NCC1CCC(C(=O)NC2CCN(C(=O)NC3CCC(CC4CCC(NC(=O)N5CCC(NC(=O)C6CCC(CN)CC6)CC5)CC4)CC3)CC2)CC1` (stereo not drawn) [Compound 23, Di{4-[4-(4-aminomethyl)cyclohexanoylamino]piperidin-1-ylcarbamoyl}cyclohexylmethane dihydrochloride]: the Ki came to 800 nM.
For `NCC1CCC(C(=O)N2CCN(C(=O)Nc3ccc(Oc4ccc(NC(=O)N5CCN(C(=O)C6CCC(CN)CC6)CC5)cc4)cc3)CC2)CC1` (stereo not drawn) [Compound 17, Bis{4-[4-(4-aminomethyl)cyclohexanoylpiperazin-1-yl]-carbonyl}-4,4′-diaminodiphenyl ether dihydrochloride], the Ki worked out at 22000 nM.
The result for `CC(C)(c1ccc(OCC(=O)NCC(=O)NCCCCN)cc1)c1ccc(OCC(=O)NCC(=O)NCCCCN)cc1` [Compound 34, 2,2-Bis-[4-(10-amino-3,6-diaza-2,5-dioxodecyloxy)-phenyl]propane dihydrochloride] reads 2000 nM; that for `NCc1cccc(C(=O)N2CCN(C(=O)Nc3ccc(Oc4ccc(NC(=O)N5CCN(C(=O)c6cccc(CN)c6)CC5)cc4)cc3)CC2)c1` [Compound 21, Bis{4-[4-(3-aminomethyl)benzoylpiperazin-1-yl]-carbonyl}-4,4′-diaminodiphenyl ether dihydrochloride], 100 nM.
Regarding `NCc1cccc(C(=O)NC2CCN(C(=O)c3cccc(C(=O)N4CCC(NC(=O)c5cccc(CN)c5)CC4)n3)CC2)c1` [Compound 11, Pyridine-2,6-dicarbobis[4-(3-aminomethylbenzoylamino)-1-piperidide]], the Ki stood at 30 nM.

For the origin of these results see patent US6489327B1, “Tryptase inhibitors” (Max-Planck-Gesellschaft zur Fordrungder Wisenschaften, e.V., priority 1998, dated 2002).
